Each structure is given as a SMILES string. pIC50: −log10 of the molar value.

For the test, the system named is HCT 116 cells. The test can be described thus: CellTiter-Glo assay in HCT 116 cells (cell viability). It counts as cell-based. To be noted: 120 h; HCT 116 human colon carcinoma cells, 5 days incubation, CellTiter-Glo luminescence. Here is the method:
The CellTiter-Glo™ Luminescent Cell Viability Assay (Promega) is a homogeneous method of determining the number of viable cells in culture based on quantitation of the ATP present, which signals the presence of metabolically active cells.
HCT 116 cells (human colon carcinoma, ATCC-No. CCl-247) were cultivated in RPMI 1640 medium with GlutaMAX™ I (Invitrogen, Cat-No. 61870-010), 2,5% Fetal Calf Serum (FCS, Sigma Cat-No. F4135 (FBS)); 100 Units/ml penicillin/100 μg/ml streptomycin (=Pen/Strep from Invitrogen Cat. No. 15140). For the assay the cells were seeded in 384 well plates, 1000 cells per well, in the same medium. The next day the test compounds were added in various concentrations ranging from 30 μM to 0.0015 μM (10 concentrations, 1:3 diluted). After 5 days the CellTiter-Glo™ assay was done according to the instructions of the manufacturer (CellTiter-Glo™ Luminescent Cell Viability Assay, from Promega). In brief: the cell-plate was equilibrated to room temperature for approximately 30 minutes and than the CellTiter-Glo™ reagent was added. The contents were carefully mixed for 15 minutes to induce cell lysis. After 45 minutes the luminescent signal was measured in Victor 2, (scanning multiwell spectrophotometer, Wallac).
1st. Day: • Medium: RPMI 1640 with GlutaMAX™ I (Invitrogen, Cat-Nr. 61870), 5% FCS (Sigma Cat.-No. F4135), Pen/Strep (Invitrogen, Cat No. 15140). • HCT116 (ATCC-No. CCl-247): 1000 cells in 60 μl per well of 384 well plate (Greiner 781098, μClear-plate white) • After seeding incubate plates 24 h at 37° C., 5% CO2 2nd. Day: Induction (Treatment with Compounds, 10 Concentrations):
In order to achieve a final concentration of 30 μM as highest concentration 3.5 μl of 10 mM compound stock solution were added directly to 163 μl media. Then step e) of the dilution procedure described below, was followed.
In order to achieve the second highest to the lowest concentrations, a serial dilution with dilution steps of 1:3 was followed according to the procedure (a-e) as described here below: • a) for the second highest concentration add 10 μl of 10 mM stock solution of compound to 20 μl dimethylsulfoxide (DMSO) • b) dilute 8×1:3 (always 10 μl to 20 μl DMSO) in this DMSO dilution row (results in 9 wells with concentrations from 3333.3 μM to 0.51 μM) • c) dilute each concentration 1:47.6 (3.5 μl compound dilution to 163 μl media) • e) add 10 μl of every concentration to 60 μl media in the cell plate resulting in final concentration of DMSO: 0.3% in every well and resulting in 10 final concentration of compounds ranging from 30 μM to 0.0015 μM. • Each compound is tested in triplicate. • Incubate 120 h (5 days) at 37° C., 5% CO2
• Add 30 μl CellTiter-Glo™ Reagent (prepared from CellTiter-Glo™ Buffer and CellTiter-Glo™ Substrate (lyophilized) purchased from Promega) per well, • shake 15 minutes at room temperature • incubate further 45 minutes at room temperature without shaking
• Victor 2 scanning multiwell spectrophotometer (Wallac), Luminescence mode (0.5 sec/read, 477 nm) • Determine IC50 using a non-linear curve fit (XLfit software (ID Business Solution Ltd., Guilford, Surrey, UK))
For orientation: ATP-based viability assays read luminescence as a measure of living cells.
A word on the pIC50: it is the IC50 on a negative log10 scale, so that one unit is a factor of ten. High values mean a small IC50, low ones a large IC50. `CCN1C(=O)C(C)(C)c2cc3nc(-c4n[nH]c5cc(-c6cccc(N(C)C)c6)ccc45)[nH]c3cc21` [Example 21, 2-[6-(3-Dimethylamino-phenyl)-1H-indazol-3-yl]-5-ethyl-7,7-dimethyl-5,7-dihydro-3H-imidazo[4,5-f]indol-6-one] showed a pIC50 of 5.82 to 7.60.

`CCN1C(=O)C(C)(C)c2cc3nc(-c4n[nH]c5cc(-c6cn[nH]c6)ccc45)[nH]c3cc21` [Example 37, 5-Ethyl-7,7-dimethyl-2-[6-(1H-pyrazol-4-yl)-1H-indazol-3-yl]-5,7-dihydro-3H-imidazo[4,5-f]indol-6-one] gave a pIC50 of 5.82 to 7.60.

In turn, `CCN1C(=O)C(C)(C)c2cc3nc(-c4n[nH]c5ccc(-c6cnn(C)c6)cc45)[nH]c3cc21` [Example 26, 5-Ethyl-7,7-dimethyl-2-[5-(1-methyl-1H-pyrazol-4-yl)-1H-indazol-3-yl]-5,7-dihydro-3H-imidazo[4,5-f]indol-6-one; compound with acetic acid] gave a pIC50 of 5.82 to 7.60.

As for `CCN1C(=O)C(C)(C)c2cc3nc(-c4n[nH]c5cc(-c6nc[nH]n6)ccc45)[nH]c3cc21` [Example 2, 5-Ethyl-7,7-dimethyl-2-[6-(1H-[1,2,4]triazol-3-yl)-1H-indazol-3-yl]-5,7-dihydro-3H-imidazo[4,5-f]indol-6-one], the pIC50 is 5.82 to 7.60.

On to `CCN1C(=O)C(C)(C)c2cc3nc(-c4n[nH]c5cc(/C=C/c6ccc(OC)cc6)ccc45)[nH]c3cc21` [Example 10, 5-Ethyl-2-{6-[(E)-2-(4-methoxy-phenyl)-vinyl]-1H-indazol-3-yl}-7,7-dimethyl-5,7-dihydro-3H-imidazo[4,5-f]indol-6-one], for which the pIC50 was 5.82 to 7.60.

In turn, `CCN1C(=O)C(C)(C)c2cc3nc(-c4n[nH]c5ccc(-c6ccsc6)cc45)[nH]c3cc21` [Example 25, 5-Ethyl-7,7-dimethyl-2-(5-thiophen-3-yl-1H-indazol-3-yl)-5,7-dihydro-3H-imidazo[4,5-f]indol-6-one; compound with acetic acid] showed a pIC50 of 5.82 to 7.60.

As for `CCN1C(=O)C(C)(C)c2cc3nc(-c4n[nH]c5cc(-c6cccc([N+](=O)[O-])c6)ccc45)[nH]c3cc21` [Example 22, 5-Ethyl-7,7-dimethyl-2-[6-(3-nitro-phenyl)-1H-indazol-3-yl]-5,7-dihydro-3H-imidazo[4,5-f]indol-6-one], the pIC50 is 5.82 to 7.60.

`CCN1C(=O)C(C)(C)c2cc3nc(-c4n[nH]c5cc(/C=C/c6ccc(Cl)cc6)ccc45)[nH]c3cc21` [Example 18, 2-{6-[(E)-2-(4-Chloro-phenyl)-vinyl]-1H-indazol-3-yl}-5-ethyl-7,7-dimethyl-5,7-dihydro-3H-imidazo[4,5-f]indol-6-one] showed a pIC50 of 5.82 to 7.60.

`CCN1C(=O)C(C)(C)c2cc3nc(-c4n[nH]c5cc(/C=C/c6ccccc6)ccc45)[nH]c3cc21` [Example 5, 5-Ethyl-7,7-dimethyl-2-[6-((E)-styryl)-1H-indazol-3-yl]-5,7-dihydro-3H-imidazo[4,5-f]indol-6-one] had a pIC50 of 6.24.

The molecule `CCN1C(=O)C(C)(C)c2cc3nc(-c4n[nH]c5ccc(-c6cccnc6)cc45)[nH]c3cc21` [Example 27, 5-Ethyl-7,7-dimethyl-2-(5-pyridin-3-yl-1H-indazol-3-yl)-5,7-dihydro-3H-imidazo[4,5-f]indol-6-one] had a pIC50 of 5.82 to 7.60.

In turn, `CCN1C(=O)C(C)(C)c2cc3nc(-c4n[nH]c5cc(-c6ccc(OC)nc6)ccc45)[nH]c3cc21` [Example 14, 5-Ethyl-2-[6-(6-methoxy-pyridin-3-yl)-1H-indazol-3-yl]-7,7-dimethyl-5,7-dihydro-3H-imidazo[4,5-f]indol-6-one] showed a pIC50 of 5.82 to 7.60.

In the case of `CCN1C(=O)C(C)(C)c2cc3nc(-c4n[nH]c5cc(-c6cncnc6)ccc45)[nH]c3cc21` [Example 32, 5-Ethyl-7,7-dimethyl-2-(6-pyrimidin-5-yl-1H-indazol-3-yl)-5,7-dihydro-3H-imidazo[4,5-f]indol-6-one], the pIC50 is 5.82 to 7.60.

The molecule `CCN1C(=O)C(C)(C)c2cc3nc(-c4n[nH]c5cc(/C=C/c6ccc(-c7ccccc7)cc6)ccc45)[nH]c3cc21` [Example 9, 2-[6-((E)-2-Biphenyl-4-yl-vinyl)-1H-indazol-3-yl]-5-ethyl-7,7-dimethyl-5,7-dihydro-3H-imidazo[4,5-f]indol-6-one] had a pIC50 of 5.82 to 7.60.

Molecule `CCN1C(=O)C(C)(C)c2cc3nc(-c4n[nH]c5cc(-c6ccc7c(c6)OCO7)ccc45)[nH]c3cc21` [Example 20, 2-(6-Benzo[1,3]dioxol-5-yl-1H-indazol-3-yl)-5-ethyl-7,7-dimethyl-5,7-dihydro-3H-imidazo[4,5-f]indol-6-one] showed a pIC50 of 6.25.

In the case of `CCN1C(=O)C(C)(C)c2cc3nc(-c4n[nH]c5cc(-c6cnn(C)c6)ccc45)[nH]c3cc21` [Example 7, 5-Ethyl-7,7-dimethyl-2-[6-(1-methyl-1H-pyrazol-4-yl)-1H-indazol-3-yl]-5,7-dihydro-3H-imidazo[4,5-f]indol-6-one], the pIC50 was 5.82 to 7.60.

In the case of `CCN1C(=O)C(C)(C)c2cc3nc(-c4n[nH]c5ccc(-c6cncnc6)cc45)[nH]c3cc21` [Example 35, 5-Ethyl-7,7-dimethyl-2-(5-pyrimidin-5-yl-1H-indazol-3-yl)-5,7-dihydro-3H-imidazo[4,5-f]indol-6-one], the pIC50 is 5.82 to 7.60.

As to `CCN1C(=O)C(C)(C)c2cc3nc(-c4n[nH]c5ccc(-c6ccc(OC)nc6)cc45)[nH]c3cc21` [Example 24, 5-Ethyl-2-[5-(6-methoxy-pyridin-3-yl)-1H-indazol-3-yl]-7,7-dimethyl-5,7-dihydro-3H-imidazo[4,5-f]indol-6-one; compound with acetic acid], the pIC50 is 5.82 to 7.60.

On to `CCN1C(=O)C(C)(C)c2cc3nc(-c4n[nH]c5cc(-c6cccs6)ccc45)[nH]c3cc21` [Example 16, 5-Ethyl-7,7-dimethyl-2-(6-thiophen-2-yl-1H-indazol-3-yl)-5,7-dihydro-3H-imidazo[4,5-f]indol-6-one], for which the pIC50 was 5.82 to 7.60.

`CCN1C(=O)C(C)(C)c2cc3nc(-c4n[nH]c5cc(-c6ccc(C(C)=O)cc6)ccc45)[nH]c3cc21` [Example 13, 2-[6-(4-Acetyl-phenyl)-1H-indazol-3-yl]-5-ethyl-7,7-dimethyl-5,7-dihydro-3H-imidazo[4,5-f]indol-6-one] showed a pIC50 of 6.48.

On to `CCN1C(=O)C(C)(C)c2cc3nc(-c4n[nH]c5cc(-c6cccnc6)ccc45)[nH]c3cc21` [Example 8, 5-Ethyl-7,7-dimethyl-2-(6-pyridin-3-yl-1H-indazol-3-yl)-5,7-dihydro-3H-imidazo[4,5-f]indol-6-one], for which the pIC50 is 6.79.

Regarding `CCN1C(=O)C(C)(C)c2cc3nc(-c4n[nH]c5cc(-c6ccccn6)ccc45)[nH]c3cc21` [Example 33, 5-Ethyl-7,7-dimethyl-2-(6-pyridin-2-yl-1H-indazol-3-yl)-5,7-dihydro-3H-imidazo[4,5-f]indol-6-one], the pIC50 was 5.82 to 7.60.

Take `CCN1C(=O)C(C)(C)c2cc3nc(-c4n[nH]c5cc(-c6ccc(N(C)C)cc6)ccc45)[nH]c3cc21` [Example 12, 2-[6-(4-Dimethylamino-phenyl)-1H-indazol-3-yl]-5-ethyl-7,7-dimethyl-5,7-dihydro-3H-imidazo[4,5-f]indol-6-one]: the pIC50 was 5.82 to 7.60.

The values above are taken from US20090291968A1, “SUBSTITUTED INDAZOLE DERIVATIVES, THEIR MANUFACTURE AND USE AS PHARMACEUTICAL AGENTS” (priority 2006, published 2009).
